The values below come from patent US8101647B2, “Spiro-oxindole compounds and their use as therapeutic agents” (Xenon Pharmaceuticals Inc., priority 2008, dated 2012).

One data set has as its system sodium channel. Briefly: Guanidine influx assay. It is filed as cell-based, human or rat. To be noted: known cell line that expresses a sodium channel; read-out: IC50 Activity Level. The text has this: This example describes an in vitro assay for testing and profiling test agents against human or rat sodium channels stably expressed in cells of either an endogenous or recombinant origin. The assay is also useful for determining the IC50 of a sodium channel blocking compound. The assay is based on the guanidine flux assay described by Reddy, N. L., et al., J. Med. Chem. (1998), 41(17):3298-302.
The guanidine influx assay is a radiotracer flux assay used to determine ion flux activity of sodium channels in a high-throughput microplate-based format. The assay uses ^14C-guanidine hydrochloride in combination with various known sodium channel modulators, to assay the potency of test agents. Potency is determined by an IC50 calculation. Selectivity is determined by comparing potency of the compound for the channel of interest to its potency against other sodium channels (also called ‘selectivity profiling’).
Each of the test agents is assayed against cells that express the channels of interest. Voltage gated sodium channels are either TTX sensitive or insensitive. This property is useful when evaluating the activities of a channel of interest when it resides in a mixed population with other sodium channels. The following Table 1 summarizes cell lines useful in screening for a certain channel activity in the presence or absence of TTX.
It is also possible to employ recombinant cells expressing these sodium channels. Cloning and propagation of recombinant cells are known to those skilled in the art (see, for example, Klugbauer, N, et al., EMBO J. (1995), 14(6):1084-90; and Lossin, C., et al., Neuron (2002), 34, pp. 877-884).
Cells expressing the channel of interest are grown according to the supplier or in the case of a recombinant cell in the presence of selective growth media such as G418 (Gibco/Invitrogen). The cells are disassociated from the culture dishes with an enzymatic solution (1×) Trypsin/EDTA (Gibco/Invitrogen) and analyzed for density and viability using haemocytometer (Neubauer). Disassociated cells are washed and resuspended in their culture media then plated into Scintiplates (Beckman Coulter Inc.) (approximately 100,000 cells/well) and incubated at 37° C./5% CO2. for 20-24 hours. After an extensive wash with Low sodium HEPES-buffered saline solution (LNHBSS) (150 mM Choline Chloride, […] (Sigma), 1 mM Calcium Chloride, 5 mM Potassium Chloride, 1 mM Magnesium Chloride, 10 mM Glucose) agents diluted with LNHBSS are added to each well. (Varying concentrations of test agent may be used). The activation/radiolabel mixture contains aconitine (Sigma) to increase the percentage of time that the sodium channels are open, and ^14C-guanidine hydrochloride (ARC) to measure flux through the voltage-gated sodium channels.
After loading the cells with test agent and activation/radiolabel mixture, the Scintiplates are incubated at ambient temperature. Following the incubation, the Scintplates are extensively washed with LNHBSS supplemented with guanidine (Sigma). The Scintiplates are dried and then counted using a Wallac MicroBeta TriLux (Perkin-Elmer Life Sciences). The ability of the test agent to block sodium channel activity is determined by comparing the amount of ^14C-guanidine present inside the cells expressing the different sodium channels.
The IC50 value of a test agent for a specific sodium channel may be determined using the above general method. […] Typically the mid-point concentration of test agent is set at 1 μM, and sequential concentrations of half dilutions greater or smaller are applied (e.g. 0.5 μM; 5 μM and 0.25 μM; 10 μM and 0.125 μM; 20 μM etc.). The IC50 curve is calculated using the 4 Parameter Logistic Model or Sigmoidal Dose-Response Model formula (fit=(A+((B−A)/(1+((C/x)^D)))).
The fold selectivity, factor of selectivity or multiple of selectivity, is calculated by dividing the IC50 value of the test sodium channel by the reference sodium channel, for example, NaV1.5. […]

In a further data set the target is T1, CYP3A4 (Homo sapiens, UniProt P08684).
T1 construct: purchased Invitrogen Corporation (Vivid CYP450 Screening Kit)
Briefly: Cytochrome P450 (CYP450) inhibition assay, fluorescence-based. Format: in vitro ADME. To be noted: recombinant CYP3A4 (P450 Baculosomes), probe Vivid substrate (fluorogenic).

T1 sequence (P08684 whole entry): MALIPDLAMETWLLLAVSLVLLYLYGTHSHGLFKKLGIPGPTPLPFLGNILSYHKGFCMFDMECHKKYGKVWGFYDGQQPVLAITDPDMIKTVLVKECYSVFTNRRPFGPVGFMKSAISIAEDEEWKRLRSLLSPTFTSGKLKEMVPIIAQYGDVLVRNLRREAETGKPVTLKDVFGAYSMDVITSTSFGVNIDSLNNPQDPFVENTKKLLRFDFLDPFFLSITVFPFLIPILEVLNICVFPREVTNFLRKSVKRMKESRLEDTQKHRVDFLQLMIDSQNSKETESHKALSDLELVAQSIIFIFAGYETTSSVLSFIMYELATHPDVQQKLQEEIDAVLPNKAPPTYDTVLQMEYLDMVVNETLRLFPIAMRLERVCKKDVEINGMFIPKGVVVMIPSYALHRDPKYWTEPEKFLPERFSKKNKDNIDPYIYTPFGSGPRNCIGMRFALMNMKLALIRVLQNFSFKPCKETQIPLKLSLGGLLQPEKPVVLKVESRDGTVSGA

For `CN(C)CCOc1ccc2c(c1)OCC21C(=O)N(C[C@H]2CCCO2)c2ccccc21` (stereo partly drawn) [Example 21, 6-[2-(dimethylamino)ethoxy]-1′-[(2R)-tetrahydrofuran-2-ylmethyl]spiro[1-benzofuran-3,3′-indol]-2′(1′H)-one], the IC50 in the data set on sodium channel lay within 1000 to 10000 nM. For the same molecule, the inhibition at 10 µM at CYP3A4 is below 50%.
As for `CC(C)[Si](Oc1ccc2c(c1)OCC21C(=O)N(C[C@H]2CCCO2)c2ccccc21)(C(C)C)C(C)C` (stereo partly drawn) [Example 4, 1′-[(2R)-tetrahydrofuran-2-ylmethyl]-6-{[tris(1-methylethyl)silyl]oxy}spiro[1-benzofuran-3,3′-indol]-2′(1′H)-one], the IC50 with sodium channel lay within 100 to 1000 nM.
On to `CCOC(=O)COc1ccc(CN2C(=O)C3(COc4cc5c(cc43)OCCO5)c3ccccc32)cc1` (centres unmarked) [Example 14.2, ethyl {4-[(2′-oxo-2,3-dihydrospiro[furo[2,3-g][1,4]benzodioxine-8,3′-indol]-1′(2′H)-yl)methyl]phenoxy}acetate], for which the melting point fell in the range of 59 to 61 °C. Also, the IC50 in the data set on sodium channel is 1 to 100 nM. Further, the inhibition at 10 µM on CYP3A4 is below 50%.
On the same counts, the results for `CC(=O)N1CCC[C@H]1CN1C(=O)C2(COc3cc4c(cc32)CCO4)c2ccccc21` (stereo partly drawn) [Example 8, 1′-{[(2S)-1-acetylpyrrolidin-2-yl]methyl}-5,6-dihydrospiro[benzo[1,2-b:5,4-b′]difuran-3,3′-indol]-2′(1′H)-one] are 103 to 108 °C, 1000 to 10000 nM and above 50%.
Turning to `CS(=O)(=O)N(c1ccc2c(c1)OCC21C(=O)N(C[C@H]2CCCO2)c2ccccc21)S(C)(=O)=O` (stereo partly drawn) [Example 18, N-(methylsulfonyl)-N-{2′-oxo-1′-[(2R)-tetrahydrofuran-2-ylmethyl]-1′,2′-dihydrospiro[1-benzofuran-3,3′-indol]-6-yl}methanesulfonamide], the IC50 with sodium channel lay in the range of 1000 to 10000 nM. In addition, the inhibition at 10 µM on CYP3A4 is below 50%.
Turning to `O=C(O)COc1cccc(CN2C(=O)C3(COc4cc5c(cc43)CCO5)c3ccccc32)c1` (centres unmarked) [Example 15, {3-[(2′-oxo-5,6-dihydrospiro[benzo[1,2-b:5,4-b′]difuran-3,3′-indol]-1′(2′H)-yl)methyl]phenoxy}acetic acid], the melting point was 95 to 96 °C. For the same molecule, the half-inhibitory concentration (IC50) in the data set on sodium channel was in the range of 1000 to 10000 nM. The inhibition at 10 µM on CYP3A4 was below 50%.
`N/C(CN1C(=O)C2(COc3cc4c(cc32)OCO4)c2c(Cl)cccc21)=N\OC(=O)C1CC1` (centres unmarked) [Example 11, 2-(4′-chloro-2′-oxospiro[furo[2,3-f][1,3]benzodioxole-7,3′-indol]-1′(2′H)-yl)-N′-[(cyclopropylcarbonyl)oxy]ethanimidamide]: the IC50 in the data set with sodium channel was in the range of 100 to 1000 nM. In addition, the inhibition at 10 µM on CYP3A4 is above 50%.
With `CN(C)CCOc1ccc2c(c1)OCC21C(=O)Nc2ccccc21` (centres unmarked) [Example 2, 6-[2-(dimethylamino)ethoxy]spiro[1-benzofuran-3,3′-indol]-2′(1′H)-one], the melting point fell in the range of 95 to 97 °C. Also, the IC50 with sodium channel was at least 10000 nM.
On to `N/C(CN1C(=O)C2(COc3cc4c(cc32)OCO4)c2ccccc21)=N\O` (centres unmarked) [Example 25, (1Z)-N′-hydroxy-2-(2′-oxospiro[furo[2,3-f][1,3]benzodioxole-7,3′-indol]-1′(2′H)-yl)ethanimidamide], for which the melting point was in the range of 235 to 238 °C. Besides, in the data set with sodium channel, the IC50 was 100 to 1000 nM. Further, at CYP3A4, the inhibition at 10 µM was above 50%.
Take `NC(=O)COc1ccc(CN2C(=O)C3(COc4cc5c(cc43)CCO5)c3ccccc32)cc1` (centres unmarked) [Example 13.1, 2-{4-[(2′-oxo-5,6-dihydrospiro[benzo[1,2-b:5,4-b′]difuran-3,3′-indol]-1′(2′H)-yl)methyl]phenoxy}acetamide]: the melting point was in the range of 215 to 216 °C. Besides, the IC50 in the data set on sodium channel is 1 to 100 nM. Also, the inhibition at 10 µM on CYP3A4 was below 50%.
On the same counts, the results for `O=C1N(C[C@H]2CCCO2)c2ccccc2C12COc1cc3c(cc12)C(=NO)CO3` (stereo partly drawn) [Example 24, 1′-[(2R)-tetrahydrofuran-2-ylmethyl]spiro[benzo[1,2-b:5,4-b′]difuran-3,3′-indole]-2′,5(1′H,6H)-dione 5-oxime] are 82 to 100 °C, 1000 to 10000 nM and above 50%.
As to `COCCOc1ccc(CN2C(=O)C3(COc4cc5c(cc43)OCCO5)c3ccccc32)cc1` (centres unmarked) [Example 13.3, 1′-[4-(2-methoxyethoxy)benzyl]-2,3-dihydrospiro[furo[2,3-g][1,4]benzodioxine-8,3′-indol]-2′(1′H)-one], the melting point is 124 to 125 °C. Also, the IC50 with sodium channel was 1 to 100 nM. The inhibition at 10 µM on CYP3A4 was above 50%.
Molecule `CCOC(=O)COc1ccc(CN2C(=O)C3(COc4cc5c(cc43)CCO5)c3ccccc32)cc1` (centres unmarked) [Example 14.1, ethyl {4-[(2′-oxo-5,6-dihydrospiro[benzo[1,2-b:5,4-b′]difuran-3,3′-indol]-1′(2′H)-yl)methyl]phenoxy}acetate] showed a melting point of 158 to 159 °C. Also, in the data set on sodium channel, the IC50 was 1 to 100 nM. Moreover, the inhibition at 10 µM on CYP3A4 was below 50%.
The matching figures for `CC(N)COc1ccc2c(c1)OCC21C(=O)N(C[C@H]2CCCO2)c2ccccc21.Cl` (stereo partly drawn) [Example 20, 6-(2-aminopropoxy)-1′-[(2R)-tetrahydrofuran-2-ylmethyl]spiro[1-benzofuran-3,3′-indol]-2′(1′H)-one hydrochloride]: 120 to 130 °C, 1000 to 10000 nM and below 50%.
The matching figures for `CNC(=O)COc1cccc(CN2C(=O)C3(COc4cc5c(cc43)CCO5)c3ccccc32)c1` (centres unmarked) [Example 16, N-methyl-2-{3-[(2′-oxo-5,6-dihydrospiro[benzo[1,2-b:5,4-b′]difuran-3,3′-indol]-1′(2′H)-yl)methyl]phenoxy}acetamide]: 175 to 176 °C, 1 to 100 nM and above 50%.
In the case of `C[S+]([O-])c1ccc(CN2C(=O)C3(COc4cc5c(cc43)CCO5)c3ccccc32)cc1` (centres unmarked) [Example 17, 1′-[4-(methylsulfinyl)benzyl]-5,6-dihydrospiro[benzo[1,2-b:5,4-b′]difuran-3,3′-indol]-2′(1′H)-one], the IC50 in the data set with sodium channel was 100 to 1000 nM. The inhibition at 10 µM on CYP3A4 is above 50%.
In turn, `NC(=O)COc1cccc(CN2C(=O)C3(COc4cc5c(cc43)CCO5)c3ccccc32)c1` (centres unmarked) [Example 13, 2-{3-[(2-oxo-5,6-dihydrospiro[benzo[1,2-b:5,4-b]difuran-3,3-indol]-1(2H)-yl)methyl]phenoxy}acetamide] had a melting point of 109 to 111 °C. Moreover, the half-inhibitory concentration (IC50) with sodium channel is 1 to 100 nM. Besides, the inhibition at 10 µM at CYP3A4 is above 50%.
